Assay results reported in article PMC5537699 (ACS Omega, 2017).
Read-outs that look alike come from different tables or passages of the source.

Assays:
[1] = target: pig kidney Na+/K+-ATPase (PKE) (Sus scrofa, UniProt P05024); experiment: Na+/K+-ATPase activity assay, purified pig kidney enzyme; format: biochemical; settings: for Ki: 1% DMSO, PKE-1 or PKE-2, optimal turnover conditions (Figure 3)
[2] = target: human kidney Na+/K+-ATPase (HKE) (Homo sapiens, UniProt P05023); experiment: Na+/K+-ATPase activity assay, purified human kidney enzyme; format: biochemical; settings: for Ki: read-out: Ki, inhibition of Na+/K+-ATPase activity of HKE-1, HKE-1, 1% DMSO, optimal turnover conditions (Figure 4A)
[3] = system: recombinant human kidney enzyme (Na+/K+-ATPase); settings: ref 14 (Katz et al., their Table 1); cited from earlier work
[4] = nearly constant levels by appropriate dosage regimens; cited from earlier work
[5] = system: purified PKE (pig kidney Na+/K+-ATPase); settings: ref 11 (Laursen et al., their Figure 3); cited from earlier work
[6] = read-out: Ki, inhibition of Na+/K+-ATPase activity of PKE

In the case of C[C@]12CC[C@H](O)C[C@@]1(O)CC[C@@H]1[C@@H]2CC[C@]2(C)[C@@H](c3ccc(=O)oc3)C[C@H]3O[C@]132 [MBG, marinobufagenin], the Ki [1, 6] is reported as 1.5 ± 0.12 µM, the “potency relative to ouabain in Na+/K+-ATPase activity assays” value ([2]; HKE-1 (Figure 4A)) is reported as “equally potent” and the Ki [2] is reported as 1.07 ± 0.04 µM. For the same compound, the “fold less potent than ouabain by relative binding constants” value [3] was “about 200 fold”.
In the case of C[C@@H]1O[C@@H](O[C@H]2C[C@@H](O)[C@]3(CO)[C@H]4[C@H](O)C[C@]5(C)[C@@H](C6=CC(=O)OC6)CC[C@]5(O)[C@@H]4CC[C@]3(O)C2)[C@H](O)[C@H](O)[C@H]1O [ouabain], the “preincubation time sufficient to obtain the maximal inhibitory effect” value ([1]; PKE-1, incubation times 10–60 min, 0.25–1000 μM) is reported as 10 min and the “ouabain sensitivity of large-scale PKE preparation versus single kidney PKEs” value ([1]; large-scale PKE, specific activity 1035 μmol Pi mg–1 h–1, results not shown) is reported as “not significantly different”.
In the case of C[C@H]1O[C@@H](O[C@H]2[C@@H](O)C[C@H](O[C@H]3[C@@H](O)C[C@H](O[C@H]4CC[C@@]5(C)[C@H](CC[C@@H]6[C@@H]5C[C@@H](O)[C@]5(C)[C@@H](C7=CC(=O)OC7)CC[C@]65O)C4)O[C@@H]3C)O[C@@H]2C)C[C@H](O)[C@@H]1O [digoxin], the Ki ([1]; Ki, inhibition of Na+/K+-ATPase activity of PKE) is listed as 1.95 ± 0.15 µM and the “blood levels when used clinically” value [4] is listed as 0.64 to 1.15 nM.
In the case of C[C@]12C[C@@H](O)[C@H]3[C@@H](CC[C@]4(O)C[C@@H](O)C[C@@H](O)[C@]34CO)[C@@]1(O)CC[C@@H]2C1=CC(=O)OC1 [ouabagenin], the “extent of inhibition of Na+/K+-ATPase activity” value ([1]; PKE (Figure 3)) is reported as “complete inhibition”, the “fold less potent than ouabain in Na+/K+-ATPase activity assays” value ([1]; PKE (Figure 3)) is reported as “about 3 fold” and the Ki [1, 6] is reported as 3.07 ± 0.23 µM. For the same compound, the Ki [2] was 4.4 ± 0.27 µM, the “extent of inhibition of the enzyme” value [5] was “only a partial inhibitor” and the “fold less potent than ouabain by relative binding constants” value [5] was “about 800 fold”.
